# Assays:
# [1] = test system: ventral horn of lumbar spinal cord; assay: Histology of lumbar spinal cord 48 hours after SCI (Nissl, Iba-1, cleaved caspase-3); format: in vivo, mouse
# Description: The lumbar enlargement of the spinal cord was removed 48 hours after surgery and sectioned to […] thickness using a cryotome (CM1850UV; Leica Biosystems, Heidelberger, Germany). Nissl staining was conducted using the Nissl stain kit (VitroVivo Biotech, Rockville, MD, USA) according to the protocol recommended by the manufacturer. Immunohistochemical staining for ionized calcium-binding adaptor molecule 1 (Iba-1) and cleaved caspase-3 was performed as previously described^6,15. The stained sections were examined using an epifluorescence microscope (Nikon Eclipse 80i; Nikon Instruments, Inc., Melville, NY, USA).
# The number of stained cells was counted in one field (0.26 mm^2) under high magnification (200×) in 3 different sections of spinal cord from each mouse by an investigator who was blinded to the identity of the samples. The average number of stained cells was calculated for each mouse. For quantitative analysis of Iba-1 staining, the Iba-1-positive area per one field (0.26 mm^2) under high magnification (200×) in 3 different ventral horn sections for each mouse was calculated using the ImageJ image-processing program (National Institutes of Health, Bethesda, MD, USA). The mean area of Iba-1 staining in the spinal cords of mice in the sham procedure group was set to 1 and the relative amount of Iba-1 staining was determined for each experimental group of mice. Each group included 5 mice.
# [2] = test system: CCL2, CXCL1, IL-1β, IL-6, TNF-α, Bcl-2, Bcl-XL, SQOR and other sulfide-metabolizing enzymes mRNA; assay: mRNA levels in lumbar spinal cords 48 hours after surgery (quantitative real-time PCR); format: in vivo, mouse; conditions: intranasal GSSSG after SCI
# Description: Messenger RNA (mRNA) levels were measured as previously described^15 using lumbar spinal cords at 48 hours after surgery. The mRNA levels of C-C motif chemokine 2 (CCL2), C-X-C motif chemokine ligand 1 (CXCL1), interleukin (IL)-1β, IL-6, tumor necrosis factor (TNF)-α, B-cell lymphoma 2 (Bcl-2), B-cell lymphoma-extra large (Bcl-XL), cystathionine beta synthase, cystathionine gamma lyase, 3-mercaptopyruvate sulfurtransferase, sulfide:quinone oxidoreductase (SQOR), ethylmaronic encephalopathy 1, thiosulfate sulfurtransferase, sulfite oxidase, cysteinyl-tRNA synthetase 1, and cysteinyl-tRNA synthetase 2 were standardized to the level of 18S ribosomal RNA using quantitative real-time polymerase chain reaction (7500 Fast Real-Time PCR System, Thermo Fisher Scientific, Waltham, MA, USA).
# [3] = LC-MS/MS of ^34S-labeled GSSSG and sulfane sulfur species in CNS and plasma after intranasal GS^34SSG; format: in vivo, mouse; conditions: after intranasal administration
# Description: We used LC-MS/MS analysis to measure the amount of ^34S-labeled GSSSG ([^32S2, ^34S]GSSSG) in the CNS and plasma after intranasal administration of GS^34SSG, an isotope of endogenous GSSSG^9,35,36. The ratios of ^34S-labeled sulfane sulfur species ([^32S, ^34S]GSSH, [^32S, ^34S]cysteine hydropersulfide (CysSSH), and [^32S2, ^34S]cysteine trisulfide (CysSSSCys)) to endogenous sulfane sulfur species ([^32S2]GSSH, [^32S2]CysSSH, and […]) were also quantitatively evaluated. At 30 minutes after intranasal administration of 50 mg/kg of GS^34SSG, blood was obtained and four different central nervous tissues were harvested: olfactory bulb and forebrain; brainstem; cervical and thoracic spinal cord, and lumbar spinal cord. A total of 30 mg of each tissue was homogenized in 300 μl of ice-cold methanol solution containing 5 mM β-(4-hydroxyphenyl)ethyl iodoacetamide (HPE-IAM; Santa Cruz Biotechnology, Dallas, TX, USA). Twenty-five μl of plasma was mixed with 75 μl of ice-cold methanol solution containing 5 mM HPE-IAM. Samples were incubated for 20 minutes at 37° C. in the dark. After centrifugation (14,000×g for tissues, 1,870×g for plasma, 10 minutes, 4° C.), the supernatant was separated and diluted with 0.1% formic acid for LC-MS/MS analysis, and the pellet was sonicated to measure the protein concentration by BCA assay. The amount of [^32S2, ^34S]GSSSG was quantified in selective reaction monitoring (SRM) with precursor ion (647.14 m/z), product ion (389.1 m/z), and higher energy collisional dissociation (21 v). The ratios of [^32S, ^34S]GSSH to [^32S2]GSSH, [^32S, ^34S]CysSSH to [^32S2]CysSSH, and [^32S2, ^34S]CysSSSCys to [^32S3]CysSSSCys were calculated from their peak area measured by Dionex UltiMate 3000 RS UPLC-Orbitrap Exploris 480 mass spectrometer (Thermo Fisher Scientific, Waltham, MA, USA). In brief, samples were subjected to the UPLC system with a Hypersil Gold C-18 (100×2.1 mm, 3.0 μm, Thermo Fisher Scientific, Waltham, MA, USA) column and were then eluted by a linear methanol gradient of the mobile phase (0-90%, 15 minutes) in the presence of 0.1% formic acid at a flow rate of 0.2 ml/minute at 40° C. The raw data were analyzed by Compound Discoverer 3.3 software (Thermo Fisher Scientific, Waltham, MA, USA). The molecular weights of these sulfane sulfur species combined with HPE-IAM were determined based on previous reports^9,11,37.
# [4] = test system: sulfane sulfur in lumbar spinal cord; assay: Relative sulfane sulfur levels in lumbar spinal cords after SCI (SSip-1); format: in vivo, mouse; conditions: 48 hours after SCI; intranasal GSSSG; sham set to 1.00±0.30, vehicle alone 0.56±0.13; mean ± SD
# Description: Lumbar spinal cords were harvested 48 hours after surgery and snap-frozen in liquid nitrogen. Spinal cords were subsequently homogenized in Hanks' balanced salt solution (HBSS; Thermo Fisher Scientific, Waltham, MA, USA) containing SSip-1 (5 μM), incubated at room temperature in the dark for 20 minutes, and then subjected to centrifugation. SSip-1 was synthesized and provided by the Hanaoka laboratory^38. The fluorescence intensities of supernatants were measured using a microplate reader (SpectraMax M5; Molecular Devices, San Jose, CA, USA) at the wavelength of λex/λem=491 nm/525 nm. The fluorescence intensities were normalized to the weights of the spinal cord.
# SH-SY5Y cells = assay: Cell viability of SH-SY5Y cells incubated with MPP+ (crystal violet assay); format: cell-based, human; conditions: MPP+ 5 mM, 24 h; 10 μM each
# Description: (§1) Cell viability assays was performed to examine cell viabilities of SH-SY5Y cells or murine primary cortical neurons 24 h after the addition of MPP^+ (5 mM for SH-SY5Y, 50 μM for primary cortical neurons) with vehicle (PBS), Na2S (Sigma-Aldrich), Na2S3 (Dojindo Molecular Technologies, Inc), GSSSG (Glutathione trisulfide, Kyowa Hakko Bio Co., Ltd., Tokyo, Japan), LA (α-Lipoic acid, Sigma-Aldrich) or LASSS (α-Lipoic acid trisulfide, Kyowa Hakko Bio Co., Ltd., Tokyo, Japan). Cell viability was measured using the crystal violet assay.
# [5] = test system: murine primary cortical neurons; assay: Cell viability of murine primary cortical neurons incubated with MPP+ (crystal violet assay); format: cell-based, mouse; conditions: MPP+ 50 μM, 24 hours
# Description: as §1
smiles,measurement,setting,value
"N[C@@H](CCC(=O)N[C@@H](CSSSC[C@H](NC(=O)CC[C@H](N)C(=O)O)C(=O)NCC(=O)O)C(=O)NCC(=O)O)C(=O)O [GSSSG, glutathione trisulfide]",number of cleaved caspase-3-positive neurons in lumbar spinal cord,[1]; intranasal GSSSG,prevented the SCI-induced increase
same,number of viable neurons (Nissl stain) in ventral horns of lumbar spinal cord,"[1]; intranasal GSSSG at 0, 8, 23, 32 hours, vs vehicle alone",significant increase in the number of viable neurons
same,Iba-1-positive staining (microglial activation) in lumbar spinal cord,"[1]; intranasal GSSSG, vs vehicle alone",significant reduction in staining for Iba-1
same,mRNA encoding SQOR in lumbar spinal cord,[2],decreased the level of mRNA encoding SQOR
same,mRNA encoding pro-inflammatory cytokines in lumbar spinal cord,[2],attenuated the upregulation
same,mRNA levels encoding other enzymes that synthesize or metabolize sulfides or persulfides,[2],no effect
same,"mRNA levels of anti-apoptotic genes Bcl-2 and Bcl-XL, vehicle alone vs GSSSG",[2],no significant difference
same,increase of levels of multiple sulfane sulfur species in the lumbar spinal cord,[3],10 to 100 fold
same,relative sulfane sulfur levels in lumbar spinal cord,[4],1.37±0.50
same,viability of MPP+-treated SH-SY5Y cells,SH-SY5Y cells,increased the viability
same,protection of murine primary cortical neurons from the effects of MPP+ treatment,[5],protected

# Reference: US20250345383A1, “INTRANASAL ADMINISTRATION OF POLYSULFIDE” (The General Hospital Corporation, priority 2022, published 2025)
